# Patent US12624034B2, “Non-covalent modifiers of AKT1 and uses thereof” (Terremoto Biosciences, Inc., priority 2023, dated 2026)
# Where two headings read alike, the source gives them in different places.
# How the values were obtained:
# [1] = biological target: T1, AKT1 E17K (Homo sapiens, UniProt P31749, E17K); assay: Live cell AKT1 E17K target engagement by NanoBRET competitive probe displacement in HEK293 cells; type: binding; conditions: 2 h at 37° C.
# T1 construct: expressed in transfected cells; host or cells: HEK293
# Method in brief: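 HEK293 cells transiently expressing kinase–NanoLuciferase fusions were treated with serial compound dilutions plus fluorescent ATP-competitive tracer at ~EC50, 2 h at 37 °C. Emission at 460 and 600 nm read after substrate and extracellular luciferase inhibitor; IC50 from Hill fit of E600/E460 BRET ratio.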
# [2] = biological target: T2, AKT1 WT (Homo sapiens, UniProt P31749); assay: Live cell AKT1 WT target engagement by NanoBRET competitive probe displacement in HEK293 cells; type: binding; conditions: 2 h at 37° C., read-out: AKT1 WT IC50
# T2 construct: expressed in transfected cells; host or cells: HEK293
# [3] = test system: LAPC4 prostate cancer cells, which express the AKT1 E17K allele; assay: Antiproliferative effects in LAPC4 cells (CellTiter Glo, 72 h); type: cell-based; conditions: read-out: LAPC4 proliferation IC50
# Method in brief: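 LAPC4 prostate cancer cells carrying AKT1 E17K, grown in IMDM with 12% FBS, were seeded at 1,000 cells/well and exposed to compound dilutions for 72 h. Viability was read as intracellular ATP by CellTiter Glo luminescence, and IC50 was fitted with a log(inhibitor) vs. response Hill equation.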
# [4] = biological target: T3, AKT2 (Homo sapiens, UniProt P31751); assay: Live cell AKT2 target engagement by NanoBRET competitive probe displacement in HEK293 cells; type: binding; conditions: 2 h at 37° C., read-out: AKT2 IC50
# T3 construct: expressed in transfected cells; host or cells: HEK293
# [5] = NanoBRET live cell target engagement, HEK293 cells
# [6] = NanoBRET competitive probe displacement, live HEK293 cells
# T3 sequence (P31751 whole entry): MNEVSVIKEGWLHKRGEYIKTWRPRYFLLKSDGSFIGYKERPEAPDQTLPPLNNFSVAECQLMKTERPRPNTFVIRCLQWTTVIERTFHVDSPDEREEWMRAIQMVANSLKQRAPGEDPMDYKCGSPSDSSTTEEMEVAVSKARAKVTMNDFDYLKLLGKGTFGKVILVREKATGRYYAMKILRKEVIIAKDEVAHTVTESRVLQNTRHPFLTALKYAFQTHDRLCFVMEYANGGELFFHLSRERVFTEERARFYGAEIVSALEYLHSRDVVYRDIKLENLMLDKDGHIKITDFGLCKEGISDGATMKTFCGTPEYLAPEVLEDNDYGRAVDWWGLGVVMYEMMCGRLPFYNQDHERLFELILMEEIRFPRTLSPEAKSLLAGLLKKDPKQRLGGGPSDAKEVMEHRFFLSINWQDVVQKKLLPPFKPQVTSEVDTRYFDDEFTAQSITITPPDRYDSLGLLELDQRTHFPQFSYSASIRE
# T2 sequence (P31749 whole entry): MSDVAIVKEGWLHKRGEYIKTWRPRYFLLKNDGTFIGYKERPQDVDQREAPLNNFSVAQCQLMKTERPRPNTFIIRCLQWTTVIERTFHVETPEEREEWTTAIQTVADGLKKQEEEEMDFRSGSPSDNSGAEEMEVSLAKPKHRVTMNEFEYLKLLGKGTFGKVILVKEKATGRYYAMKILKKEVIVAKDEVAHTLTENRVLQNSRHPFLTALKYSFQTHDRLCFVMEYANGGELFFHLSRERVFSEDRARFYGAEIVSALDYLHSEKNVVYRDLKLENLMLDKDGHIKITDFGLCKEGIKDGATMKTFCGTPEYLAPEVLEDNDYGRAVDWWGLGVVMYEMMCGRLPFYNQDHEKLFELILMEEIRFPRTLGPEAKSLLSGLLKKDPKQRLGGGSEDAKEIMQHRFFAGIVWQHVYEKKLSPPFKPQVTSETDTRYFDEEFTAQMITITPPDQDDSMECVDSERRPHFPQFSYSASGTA
# T1 sequence (P31749 whole entry E17K): as the sequence (P31749 whole entry) above, with E17K counted along it
SMILES,"IC50 [1, 5] [nM]","IC50 [2, 5] [nM]","IC50 ([3]; Homo sapiens, LAPC4, 72 h) [nM]","IC50 [4, 5] [nM]","IC50 [1, 6] [nM]","IC50 [2, 6] [nM]","IC50 [4, 6] [nM]",IC50 [3] [nM]
"Cc1ccc(C(=O)N[C@H]2CCc3cc(-n4c(-c5cccnc5N)nc5ccc(-n6ccc(F)n6)nc54)ccc32)cn1 [Compound 52, (S)—N-(5-(2-(2-aminopyridin-3-yl)-5-(3-fluoro-1H-pyrazol-1-yl)-3H-imidazo[4,5-b]pyridin-3-yl)-2,3-dihydro-1H-inden-1-yl)-6-methylnicotinamide]",357,11.6,915,128,,,,
"Cc1cc(C(=O)N[C@H]2CCc3cc(-n4c(-c5cccnc5N)nc5ccc(-n6cccn6)nc54)ccc32)n[nH]1 [Compound 4, (S)—N-(5-(2-(2-aminopyridin-3-yl)-5-(1H-pyrazol-1-yl)-3H-imidazo[4,5-b]pyridin-3-yl)-2,3-dihydro-1H-inden-1-yl)-5-methyl-11H-pyrazole-3-carboxamide]",172,19.7,1770,295,,,,
Nc1ncccc1-c1nc2ccc(-c3ccccc3)nc2n1-c1ccc2c(c1)CC[C@@H]2NC1CCN(C(=O)C2CC2)CC1 [Compound 391],257,19.7,2250,103,,,,
CCOC(=O)N1CCC(N[C@H]2CCc3cc(-n4c(-c5cccnc5N)nc5ccc(-n6cccn6)nc54)ccc32)CC1 [Compound 289],283,69.9,4780,2990,,,,
Nc1ncccc1-c1nc2ccc(-n3cccn3)nc2n1-c1ccc2c(c1)CC[C@@H]2NC1CCN(C(=O)c2ccccn2)CC1 [Compound 358],> 1000,208,7530,4640,,,,
"Nc1ncccc1-c1nc2ccc(-n3cccn3)nc2n1-c1ccc2c(c1)CC[C@@H]2NC(=O)c1cnc(C(F)F)c(F)c1 [Compound 62, (S)—N-(5-(2-(2-aminopyridin-3-yl)-5-(1H-pyrazol-1-yl)-3H-imidazo[4,5-b]pyridin-3-yl)-2,3-dihydro-1H-inden-1-yl)-6-(difluoromethyl)-5-fluoronicotinamide]",64,4.97,692,59.5,,,,
"Nc1ncccc1-c1nc2ccc(-n3cccn3)nc2n1-c1ccc2c(c1)CC(F)[C@@H]2NC1CCN(C(=O)C2CC2)CC1 (single isomer, unassigned) [Compound 385, 3-{3-[(1R,2*)-1-[(1-cyclopropanecarbonylpiperidin-4-yl)amino]-2-fluoro-2,3-dihydro-1H-inden-5-yl]-5-(pyrazol-1-yl)imidazo[4,5-b]pyridin-2-yl}pyridin-2-amine]",> 856,34.3,> 7500,1790,,,,
Cc1nc(C(F)F)ccc1C(=O)N[C@H]1CCc2cc(-n3c(-c4cccnc4N)nc4ccc(-n5nccn5)nc43)ccc21 [Compound 392],> 1000,41.3,> 10000,5530,,,,
CCC(=O)N1CCC(N[C@H]2CCc3cc(-n4c(-c5cccnc5N)nc5ccc(-n6cccn6)nc54)ccc32)CC1 [Compound 278],> 1000,93,> 10000,3290,,,,
"COc1ccc(C(=O)N[C@H]2CCc3cc(-n4c(-c5cccnc5N)nc5ccc(-n6cccn6)nc54)ccc32)cn1 [Compound 38, N-[(1S)-5-[2-(2-aminopyridin-3-yl)-5-(pyrazol-1-yl)imidazo[4,5-b]pyridin-3-yl]-2,3-dihydro-1H-inden-1-yl]-6-methoxypyridine-3-carboxamide]",25.6,4.07,585,19,,,,
COc1cc(C(=O)N[C@H]2CCc3cc(-n4c(-c5cccnc5N)nc5ccc(-n6cccn6)nc54)ccc32)cc(OC)n1 [Compound 283],10.6,2.75,264,2.91,,,,
"Nc1ncccc1-c1nc2ccc(-n3cccn3)nc2n1-c1ccc2c(c1)CC[C@@H]2NC(=O)c1ccc2nccn2c1 [Compound 17, (S)—N-(5-(2-(2-aminopyridin-3-yl)-5-(1H-pyrazol-1-yl)-3H-imidazo[4,5-b]pyridin-3-yl)-2,3-dihydro-1H-inden-1-yl)imidazo[1,2-a]pyridine-6-carboxamide]",41.2,5.78,1020,90.6,,,,
"Nc1ncccc1-c1nc2ccc(-n3cccn3)nc2n1-c1ccc2c(c1)CC[C@@H]2NC(=O)c1cnccn1 [Compound 19, (S)—N-(5-(2-(2-aminopyridin-3-yl)-5-(1H-pyrazol-1-yl)-3H-imidazo[4,5-b]pyridin-3-yl)-2,3-dihydro-1H-inden-1-yl)pyrazine-2-carboxamide]",167,43.5,8030,2120,,,,
Nc1ncccc1-c1nc2ccc(-n3cccn3)nc2n1-c1ccc2c(c1)CC[C@@H]2NC1CCN(c2ccccn2)C1 (some centres unmarked) [Compound 387],376,9.48,4430,351,,,,
Nc1ncccc1-c1nc2ccc(-n3nccn3)nc2n1-c1ccc2c(c1)CC[C@@H]2NC(=O)c1ccnc2c1CCO2 [Compound 286],897,40.5,4810,589,,,,
Nc1ncccc1-c1nc2ccc(-n3nccn3)nc2n1-c1ccc2c(c1)CC[C@@H]2NC(=O)c1ccnc2occc12 [Compound 379],248,12.6,4240,1280,,,,
"Nc1ncccc1-c1nc2ccc(-n3cccn3)nc2n1-c1ccc2c(c1)CC[C@@H]2NC(=O)Cc1ccn[nH]1 [Compound 51, (S)—N-(5-(2-(2-aminopyridin-3-yl)-5-(1H-pyrazol-1-yl)-3H-imidazo[4,5-b]pyridin-3-yl)-2,3-dihydro-1H-inden-1-yl)-2-(1H-pyrazol-5-yl)acetamide]",> 1000,137,> 10000,4560,,,,
"Nc1ncccc1-c1nc2ccc(-n3cccn3)nc2n1-c1ccc2c(c1)CC[C@@H]2NC(=O)c1ccncc1 [Compound 35, N-[(1S)-5-[2-(2-aminopyridin-3-yl)-5-(pyrazol-1-yl)imidazo[4,5-b]pyridin-3-yl]-2,3-dihydro-1H-inden-1-yl]pyridine-4-carboxamide]",143,14.2,1750,98.6,,,,
COc1nccc(C(=O)N[C@H]2CCc3cc(-n4c(-c5cccnc5N)nc5ccc(-n6cccn6)nc54)ccc32)c1OC [Compound 355],734,16.8,2770,74.4,,,,
"COc1cc(C(=O)N[C@H]2CCc3cc(-n4c(-c5cccnc5N)nc5ccc(-n6cccn6)nc54)ccc32)ccn1 [Compound 25, (S)—N-(5-(2-(2-aminopyridin-3-yl)-5-(1H-pyrazol-1-yl)-3H-imidazo[4,5-b]pyridin-3-yl)-2,3-dihydro-1H-inden-1-yl)-2-methoxyisonicotinamide]",7.43,2.11,576,9.84,,,,
"Nc1ncccc1-c1nc2ccc(-n3cccn3)nc2n1-c1ccc2c(c1)CC[C@@H]2NC(=O)c1ccnc(OC(F)(F)F)c1 [Compound 64, (S)—N-(5-(2-(2-aminopyridin-3-yl)-5-(1H-pyrazol-1-yl)-3H-imidazo[4,5-b]pyridin-3-yl)-2,3-dihydro-1H-inden-1-yl)-2-(trifluoromethoxy)isonicotinamide]",159,4.63,2620,183,,,,
"Nc1ncccc1-c1nc2ccc(-n3cccn3)nc2n1-c1ccc2c(c1)CC[C@@H]2NC(=O)Cc1ccncc1 [Compound 49, N-[(1S)-5-[2-(2-aminopyridin-3-yl)-5-(pyrazol-1-yl)imidazo[4,5-b]pyridin-3-yl]-2,3-dihydro-1H-inden-1-yl]-2-(pyridin-4-yl)acetamide]",> 1000,199,> 10000,2840,,,,
"Cc1cc(C(F)F)ncc1C(=O)N[C@H]1CCc2cc(-n3c(-c4cccnc4N)nc4ccc(-n5cccn5)nc43)ccc21 [Compound 56, (S)—N-(5-(2-(2-aminopyridin-3-yl)-5-(1H-pyrazol-1-yl)-3H-imidazo[4,5-b]pyridin-3-yl)-2,3-dihydro-1H-inden-1-yl)-6-(difluoromethyl)-4-methylnicotinamide]",143,12.2,1630,43.3,,,,
Cc1ccc(C(=O)N[C@H]2CCc3cc(-n4c(-c5cccnc5N)nc5ccc(-n6nccn6)nc54)ccc32)cn1 [Compound 67],229,15,1140,636,,,,
Nc1ncccc1-c1nc2ccc(-n3cccn3)nc2n1-c1ccc2c(c1)CC[C@@H]2NC1CCN(S(=O)(=O)C2CC2)CC1 [Compound 393],,,> 10000,,> 1000,125,3850,
Nc1ncccc1-c1nc2ccc(-n3nccn3)nc2n1-c1ccc2c(c1)CC(F)[C@@H]2NC(=O)c1ccc(C(F)F)nc1 (some centres unmarked) [Compound 349],49.6,10.3,,222,,,,408
